Measured values reported in patent US20060167037A1, “Combinational radiotherapy and chemotherapy compositions and methods” (priority 2003, published 2006).

How the values were obtained:
Format in all cases: cell-based
cancer cells [1] = test: Synergistic interaction with death receptor ligands and growth receptor inhibitors; details: growth receptor inhibitors eg. of EGF, PDGF, FGF, TNF and IGF receptors
[2] = system: cancer cell lines to human breast, prostate, ovarian, pancreatic and cervical cancers; test: Radiosensitisation of cancer cell lines on culture plates (cell viability by CellTiter, apoptosis by Hoechst 33342 dye); details: pre-treatment (1 day and 8 hour) and sequential/post-treatment (−30 min/+4 h) regimes, at 2 and 10 μM
Method: The effect of a selection of isoflavonoid compounds on various cancer cell lines subjected to radiotherapy was assessed on culture plates. Cell viability was determined using CellTiter®. Apoptosis was evaluated using Hoechst 33342 dye.
32 and 39 (at 2 and 10 μM).

cancer cells [3] = test: Synergy with the chemotherapeutics cisplatin and gemcitabine

Which results are given for `COc1ccc(C2c3ccc(O)cc3OCC2c2ccc(O)cc2)cc1` (stereo not shown) [compound 32]?
synergistic interaction with interferon-gamma, Fas ligand, TRAIL ligand, growth receptor inhibitors (cancer cells [1]): synergistic interaction; radiosensitisation of cancer cell lines subjected to radiotherapy [2]: radiosensitised

Which “synergistic interaction with interferon-gamma, Fas ligand, TRAIL ligand, growth receptor inhibitors” value (cancer cells [1]) does the source give for `COc1ccc(C2c3ccc(O)c(C)c3OCC2c2ccc(O)cc2)cc1` (stereo not shown) [compound 39] here?
Its value is “synergistic interaction”.

And the “radiosensitisation of cancer cell lines subjected to radiotherapy” value [2]?
The value was “radiosensitised”.

Which results are given for `Oc1ccc(C2=Cc3ccc(O)cc3OC2)cc1` [Cpd. 12, dehydroequol]?
synergy with the effect of chemotherapeutics such as cisplatin and gemcitabine (cancer cells [3]): synergise; synergistic interaction with interferon-gamma, Fas ligand, TRAIL ligand, growth receptor inhibitors (cancer cells [1]): synergistic interaction; radiosensitisation of cancer cell lines subjected to radiotherapy [2]: radiosensitised
